Values joined by “and” are separate entries in the source; they are usually repeats but may differ in a detail not shown here. Equal values may be shown once.
How the values were obtained:
HCT116 cells = assay: Cell cycle analysis, propidium iodide FACS (DNA content); type: cell-based; conditions: for percentage of cells in the G0/G1 phase (G1) / percentage of cells in the G2/M phase / percentage of cells in the S phase: HCT116, 24 hrs
Protocol: Monasterol and pentamidine in individual experiments: • HCT116 cells were treated with the given concentrations of the compounds for 24 hrs, processed for the propidium iodide analysis with a BD-FACS scan in order to determine the DNA content of the treated cell populations. The percentage of cells in the G0/G1 phase (unreplicated DNA), S phase (DNA replication phase) and G2/M phase (duplicated DNA before mitosis) is shown. 10,000 events were counted for each concentration. Striking changes in the G2/M enrichment have been highlighted.

[1] = test system: colon carcinoma cell line HCT116; assay: Assay II: combination cell proliferation test, Crystal Violet staining; type: cell-based; conditions: for -fold inhibition of proliferation / OD550 nm background corrected / % of control: 48 hrs
Protocol: The combination of the antiprotozoic pentamidine and the inhibitors of kinesin ATPase Eg5/KSP results in increased inhibitory effects in cell proliferation tests with the colon carcinoma cell line HCT116.
10^3 to 10^4 cells of a defined cell line (HCT116, Colo 205, MDA-MB 231, etc.) are sown into each well of a 96-well microtitre plate and cultivated overnight under standard conditions. For the substances of the combination to be tested, 10-50 mM stock solutions in DMSO were prepared. Dilution series (generally 3-fold dilution steps) of the individual substances were combined with one another in the form of a pipetting scheme (see scheme below), while maintaining a DMSO final concentration of 0.5% (v/v). Next morning, the substance mixtures were added to the cells, which were incubated under culture conditions for a further 48 hours. At the end of the cultivation, Crystal Violet staining of the cells was carried out. After extraction of the Crystal Violet from the fixed cells, the absorption at 550 nm was measured spectrophotometrically. It can be used as a quantitative measure of the adherent cells present.
HCT116 cells were incubated overnight at 37° C. in 96-well plates at a density of 2500 or 5000 cells/well. On the following day, a concentration matrix of pentamidine and the compounds indicated was added, and the cells were incubated for a further 48 hrs. The cells were then stained with Crystal Violet, and the absorption was measured after extraction of the dye. The absorption value reflects the number of cells in the well.
Results: Upper matrix: OD550 nm background corrected Central matrix: % of control (the 100% value stands for vehicle-treated cells minus background signal) Lower field: -fold inhibition values (i.e. the 100%/x % value stands for a-fold inhibition of proliferation).

[2] = monastrol 6.125 μM, pentamidine 0 μM
[3] = monastrol 12.5 μM, pentamidine 0 μM
[4] = monastrol 25 μM, pentamidine 0 μM
[5] = monastrol 50 μM, pentamidine 0 μM

CC(C)(C)c1ccc2c(c1)[C@H]1OCCC[C@H]1[C@H](c1ccsc1)N2 [Example I12]
percentage of cells in the G0/G1 phase (G1) (HCT116 cells; 0.0032 μM): 36%
percentage of cells in the G2/M phase (HCT116 cells; 0.0032 μM): 21%
percentage of cells in the S phase (HCT116 cells; 0.0032 μM): 44%
percentage of cells in the G0/G1 phase (G1) (HCT116 cells; 0.016 μM): 36%
percentage of cells in the G2/M phase (HCT116 cells; 0.016 μM): 21%
percentage of cells in the S phase (HCT116 cells; 0.016 μM): 43%
percentage of cells in the G0/G1 phase (G1) (HCT116 cells; 0.08 μM): 35%
percentage of cells in the G2/M phase (HCT116 cells; 0.08 μM): 23%
percentage of cells in the S phase (HCT116 cells; 0.08 μM): 42%
percentage of cells in the G0/G1 phase (G1) (HCT116 cells; 0.4 μM): 7%
percentage of cells in the G2/M phase (HCT116 cells; 0.4 μM): 86%
percentage of cells in the S phase (HCT116 cells; 0.4 μM): 7%
percentage of cells in the G0/G1 phase (G1) (HCT116 cells; 2 μM): 0%
percentage of cells in the G2/M phase (HCT116 cells; 2 μM): 85%
percentage of cells in the S phase (HCT116 cells; 2 μM): 15%
activity at 0.025 µM ([1]; Homo sapiens, HCT-116, 48 h, I12 0.025 μM, pentamidine 0 μM, read-out: % of control): 91%
activity at 0.05 µM ([1]; Homo sapiens, HCT-116, 48 h, I12 0.05 μM, pentamidine 0 μM, read-out: % of control): 98%
activity at 0.1 µM ([1]; Homo sapiens, HCT-116, 48 h, I12 0.1 μM, pentamidine 0 μM, read-out: % of control): 90%
activity at 0.2 µM ([1]; Homo sapiens, HCT-116, 48 h, I12 0.2 μM, pentamidine 0 μM, read-out: % of control): 90%
activity at 0.4 µM ([1]; Homo sapiens, HCT-116, 48 h, I12 0.4 μM, pentamidine 0 μM, read-out: % of control): 31%
-fold inhibition of proliferation ([1]; I12 0.025 μM, pentamidine 0 μM): 1 fold
OD550 nm background corrected ([1]; I12 0.025 μM, pentamidine 0 μM): 1.1
-fold inhibition of proliferation ([1]; I12 0.05 μM, pentamidine 0 μM): 1 fold
OD550 nm background corrected ([1]; I12 0.05 μM, pentamidine 0 μM): 1.2
-fold inhibition of proliferation ([1]; I12 0.1 μM, pentamidine 0 μM): 1 fold
OD550 nm background corrected ([1]; I12 0.1 μM, pentamidine 0 μM): 1.1
-fold inhibition of proliferation ([1]; I12 0.2 μM, pentamidine 0 μM): 1 fold
OD550 nm background corrected ([1]; I12 0.2 μM, pentamidine 0 μM): 1.1
-fold inhibition of proliferation ([1]; I12 0.4 μM, pentamidine 0 μM): 3 fold
OD550 nm background corrected ([1]; I12 0.4 μM, pentamidine 0 μM): 0.4

CCOC(=O)C1=C(C)NC(=S)NC1c1cccc(O)c1 (stereo not drawn) [Monastrol]
percentage of cells in the G0/G1 phase (G1) (HCT116 cells; 0.08 μM): 35%
percentage of cells in the G2/M phase (HCT116 cells; 0.08 μM): 25%
percentage of cells in the S phase (HCT116 cells; 0.08 μM): 39%
percentage of cells in the G0/G1 phase (G1) (HCT116 cells; 0.4 μM): 34%
percentage of cells in the G2/M phase (HCT116 cells; 0.4 μM): 28%
percentage of cells in the S phase (HCT116 cells; 0.4 μM): 38%
percentage of cells in the G0/G1 phase (G1) (HCT116 cells; 2 μM): 33%
percentage of cells in the G2/M phase (HCT116 cells; 2 μM): 25%
percentage of cells in the S phase (HCT116 cells; 2 μM): 42%
percentage of cells in the G0/G1 phase (G1) (HCT116 cells; 10 μM): 34%
percentage of cells in the G2/M phase (HCT116 cells; 10 μM): 27%
percentage of cells in the S phase (HCT116 cells; 10 μM): 39%
percentage of cells in the G0/G1 phase (G1) (HCT116 cells; 50 μM): 14%
percentage of cells in the G2/M phase (HCT116 cells; 50 μM): 52%
percentage of cells in the S phase (HCT116 cells; 50 μM): 33%
activity at 6.125 µM ([1]; Homo sapiens, HCT-116, 48 h, monastrol 6.125 μM, pentamidine 0 μM, read-out: % of control): 84%
activity at 12.5 µM ([1]; Homo sapiens, HCT-116, 48 h, monastrol 12.5 μM, pentamidine 0 μM, read-out: % of control): 62%
activity at 25 µM ([1]; Homo sapiens, HCT-116, 48 h, monastrol 25 μM, pentamidine 0 μM, read-out: % of control): 53%
activity at 50 µM ([1]; Homo sapiens, HCT-116, 48 h, monastrol 50 μM, pentamidine 0 μM, read-out: % of control): 17%
-fold inhibition of proliferation [1, 2]: 1 fold
OD550 nm background corrected [1, 2]: 0.68
-fold inhibition of proliferation [1, 3]: 2 fold
OD550 nm background corrected [1, 3]: 0.51
-fold inhibition of proliferation [1, 4]: 2 fold
OD550 nm background corrected [1, 4]: 0.43
-fold inhibition of proliferation [1, 5]: 6 fold
OD550 nm background corrected [1, 5]: 0.14

N=C(N)c1ccc(OCCCCCOc2ccc(C(=N)N)cc2)cc1.O=S(=O)(O)CCO.O=S(=O)(O)CCO [Pentamidine Isothionate]
percentage of cells in the G0/G1 phase (G1) (HCT116 cells; 0.016 μM): 36%
percentage of cells in the G2/M phase (HCT116 cells; 0.016 μM): 22%
percentage of cells in the S phase (HCT116 cells; 0.016 μM): 42%
percentage of cells in the G0/G1 phase (G1) (HCT116 cells; 0.08 μM): 35%
percentage of cells in the G2/M phase (HCT116 cells; 0.08 μM): 21%
percentage of cells in the S phase (HCT116 cells; 0.08 μM): 44%
percentage of cells in the G0/G1 phase (G1) (HCT116 cells; 0.4 μM): 33%
percentage of cells in the G2/M phase (HCT116 cells; 0.4 μM): 22%
percentage of cells in the S phase (HCT116 cells; 0.4 μM): 45%
percentage of cells in the G0/G1 phase (G1) (HCT116 cells; 2 μM): 32%
percentage of cells in the G2/M phase (HCT116 cells; 2 μM): 24%
percentage of cells in the S phase (HCT116 cells; 2 μM): 44%
percentage of cells in the G0/G1 phase (G1) (HCT116 cells; 10 μM): 32%
percentage of cells in the G2/M phase (HCT116 cells; 10 μM): 32%
percentage of cells in the S phase (HCT116 cells; 10 μM): 32%

N=C(N)c1ccc(OCCCCCOc2ccc(C(=N)N)cc2)cc1 [Pentamidine, pentamidine]
effect on the cell cycle (in words) (HCT116 cells): maintain cells in the G2/M cell cycle
activity at 4 µM ([1]; Homo sapiens, HCT-116, 48 h, pentamidine 4 μM alone, read-out: % of control): 85%
activity at 8 µM ([1]; Homo sapiens, HCT-116, 48 h, pentamidine 8 μM alone, read-out: % of control): 50%
activity at 16 µM ([1]; Homo sapiens, HCT-116, 48 h, pentamidine 16 μM alone, read-out: % of control): 30%
activity at 32 µM ([1]; Homo sapiens, HCT-116, 48 h, pentamidine 32 μM alone, read-out: % of control): 20%
% of control ([1]; pentamidine 2 μM alone): 86% and 124%
-fold inhibition of proliferation ([1]; pentamidine 2 μM alone): 1 fold
OD550 nm background corrected ([1]; pentamidine 2 μM alone): 1.0 and 1.01
% of control ([1]; pentamidine 4 μM alone): 101%
-fold inhibition of proliferation ([1]; pentamidine 4 μM alone): 1 fold
OD550 nm background corrected ([1]; pentamidine 4 μM alone): 1.0 and 0.82
% of control ([1]; pentamidine 8 μM alone): 55%
-fold inhibition of proliferation ([1]; pentamidine 8 μM alone): 2 fold
OD550 nm background corrected ([1]; pentamidine 8 μM alone): 0.6 and 0.45
% of control ([1]; pentamidine 16 μM alone): 18%
-fold inhibition of proliferation ([1]; pentamidine 16 μM alone): 3 fold and 6 fold
-fold inhibition of proliferation ([1]; pentamidine 32 μM alone): 5 fold
OD550 nm background corrected ([1]; pentamidine 32 μM alone): 0.2

Source: patent publication US7868172B2, “2-(hetero)-aryl substituted tetrahydroquinoline derivatives” (Merck Patent GmbH, priority 2003, dated 2011)
